Columns and labels:
Assay in all cases: relative viability (nuclei count vs DMSO), 5 days (fraction); higher = more cells survive
Quizartinib = compound: CC(C)(C)c1cc(NC(=O)Nc2ccc(-c3cn4c(n3)sc3cc(OCCN5CCOCC5)ccc34)cc2)no1 [Quizartinib]
How it was run: (§1)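 For viability, nuclei in each treated well were divided by nuclei in vehicle wells and the median across plates was taken. Lung cancer cell lines in 1536-well plates were pinned with five library-drug doses (not always all listed) spaced by √10, cultured 5 days without medium change, and imaged at 4× after Hoechst staining, with plates passing only at control CV below 25% and at least one doubling.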

YM155 = compound: COCC[n+]1c2c(n(Cc3cnccn3)c1C)C(=O)c1ccccc1C2=O [YM155]
How it was run: as §1

YM155 + Phenformin = compound: COCC[n+]1c2c(n(Cc3cnccn3)c1C)C(=O)c1ccccc1C2=O [YM155] + N=C(N)NC(=N)NCCc1ccccc1 [Phenformin] (partner 250 µM)
How it was run: (§2)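 Cells from lung cancer lines were seeded into 1536-well plates and, one day later, dosed by pin tool. Treatments were either a single drug or a fixed dose of an anchor drug with five library-drug doses (not always all listed) in √10 steps. After 5 days, nuclei were stained in a one-step fixation (final 0.05% Triton X-100, 1% formaldehyde, 1 ug/ml Hoechst) and counted on 4× images, and relative viability is the treated-to-vehicle nuclei ratio, as the median of duplicate plates.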

Quizartinib + Navitoclax = compound: CC(C)(C)c1cc(NC(=O)Nc2ccc(-c3cn4c(n3)sc3cc(OCCN5CCOCC5)ccc34)cc2)no1 [Quizartinib] + CC1(C)CCC(c2ccc(Cl)cc2)=C(CN2CCN(c3ccc(C(=O)NS(=O)(=O)c4ccc(N[C@H](CCN5CCOCC5)CSc5ccccc5)c(S(=O)(=O)C(F)(F)F)c4)cc3)CC2)C1 [Navitoclax] (partner 0.5 µM)
How it was run: as §2

| Cell Line | relative viability (Quizartinib; 0.001 µM) | relative viability (Quizartinib; 0.003162 µM) | relative viability (Quizartinib; 0.01 µM) | relative viability (Quizartinib; 0.03162 µM) | relative viability (Quizartinib; 0.1 µM) | relative viability (YM155; 0.002 µM) | relative viability (YM155; 0.006325 µM) | relative viability (YM155; 0.02 µM) | relative viability (YM155; 0.06325 µM) | relative viability (YM155 + Phenformin; first compound 0.002 µM) | relative viability (YM155 + Phenformin; first compound 0.006325 µM) | relative viability (YM155 + Phenformin; first compound 0.02 µM) | relative viability (YM155 + Phenformin; first compound 0.06325 µM) | relative viability (Quizartinib + Navitoclax; first compound 0.001 µM) | relative viability (Quizartinib + Navitoclax; first compound 0.003162 µM) | relative viability (Quizartinib + Navitoclax; first compound 0.01 µM) | relative viability (Quizartinib + Navitoclax; first compound 0.03162 µM) | relative viability (Quizartinib + Navitoclax; first compound 0.1 µM) |
| --- | --- | --- | --- | --- | --- | --- | --- | --- | --- | --- | --- | --- | --- | --- | --- | --- | --- | --- |
| SK-MES-1 | 0.944 | 0.96 | 1.09 | 0.732 | 0.924 | 0.956 | 1.02 | 0.942 | 0.692 | 0.584 | 0.695 | 0.575 | 0.256 | 1.05 | 1.1 | 1.35 | 1.13 | 1.26 |
| HCC-15 | 0.842 | 1 | 0.978 | 0.957 | 0.963 | 0.928 | 1.11 | 0.975 | 1.02 | 0.465 | 0.464 | 0.464 | 0.494 | 0.756 | 0.652 | 0.665 | 0.689 | 0.724 |
| NCI-H1650 | 0.877 | 0.976 | 0.918 |  | 1 | 0.867 | 0.921 | 0.863 | 0.739 | 0.356 | 0.412 | 0.484 | 0.557 | 0.928 | 1.25 | 1.35 |  | 1.24 |
| NCI-H1666 | 0.86 | 1.01 | 1 | 0.845 | 1.02 | 0.932 | 1 | 1.02 | 0.918 | 0.567 | 0.599 | 0.578 | 0.579 | 0.773 | 0.949 | 1.06 | 0.743 | 0.866 |
| EMC-BAC-2 | 0.919 | 0.976 | 0.927 |  | 1.05 | 0.883 | 0.971 | 1.09 | 0.808 | 0.463 | 0.514 | 0.542 | 0.568 | 1.13 | 1.14 | 1.31 | 1.18 | 1.19 |
| NCI-H460 | 0.811 | 0.957 | 1.02 | 0.78 | 0.942 | 0.984 | 1.02 | 0.997 | 0.988 | 0.518 | 0.531 | 0.546 | 0.477 | 1 | 1.09 | 1.24 |  | 1.13 |
| NCI-H2405 | 0.986 | 1.03 | 0.955 | 0.958 | 1.06 | 0.952 | 0.903 | 0.956 | 0.595 | 0.383 | 0.39 | 0.423 | 0.404 | 0.912 | 0.858 | 0.942 | 0.784 | 1.15 |
| SK-LU-1 | 0.88 | 0.861 | 1.11 | 0.999 | 1.06 | 0.86 | 1.06 | 1.07 | 0.91 | 0.487 | 0.499 | 0.566 | 0.588 | 0.852 | 0.771 | 0.979 | 0.72 | 1.07 |
| NCI-H1395 | 0.93 | 0.949 | 0.841 | 0.811 | 1.16 | 0.898 | 0.946 | 1.12 | 0.985 | 0.419 | 0.465 | 0.453 | 0.481 | 1.05 | 1.07 | 1.14 | 1.59 | 1.36 |
| NCI-H727 | 0.7 | 0.899 | 0.883 | 0.83 | 0.96 | 0.932 | 0.933 | 0.967 | 1.04 | 0.532 | 0.522 | 0.634 | 0.689 | 0.408 |  | 0.611 | 0.476 | 0.357 |
| NCI-H1975 | 0.853 | 0.891 | 0.966 | 1.03 | 1.01 | 0.826 | 0.883 | 0.921 | 0.679 | 0.384 | 0.415 | 0.406 | 0.395 | 1.02 | 1.1 | 1.19 | 1.06 | 1.1 |
| BEN | 0.906 | 0.982 | 0.94 | 0.813 | 0.972 | 0.899 | 0.972 | 1.09 | 1.11 | 0.28 | 0.258 | 0.227 | 0.266 | 0.0726 | 0.0683 | 0.107 | 0.051 | 0.0586 |
| NCI-H2228 | 0.856 | 0.854 | 1.15 | 1.13 | 0.927 | 0.834 | 0.887 | 1.02 | 1.11 | 0.304 | 0.272 | 0.375 | 0.338 | 0.859 | 0.702 | 0.75 | 1.08 | 0.98 |
| NCI-H2023 | 0.881 | 0.999 | 0.938 |  | 1.01 | 0.872 | 1.01 | 0.866 | 0.71 | 0.361 | 0.403 | 0.411 | 0.422 | 0.981 | 0.937 | 1.04 | 0.744 | 1.04 |
| NCI-H1793 | 0.838 | 1.01 | 0.839 | 0.853 | 0.925 | 0.706 | 0.936 | 0.908 | 0.869 | 0.348 | 0.371 | 0.365 | 0.353 | 0.414 | 0.304 | 0.496 | 0.423 | 0.331 |
| NCI-H1993 | 0.948 | 1 | 1.02 | 1.04 | 1.11 | 0.904 | 0.927 | 0.771 | 0.577 | 0.463 | 0.547 | 0.488 | 0.512 | 0.964 | 0.906 | 1.13 | 0.959 | 0.793 |
| PC-3 [JPC-3] | 0.978 | 1.02 | 1.04 | 0.852 | 1.08 | 1.01 | 1.07 | 1.1 | 1 | 0.454 | 0.521 | 0.475 | 0.473 | 0.703 | 0.859 | 0.768 | 0.835 | 0.821 |
| NCI-H596 | 1.05 | 1.03 | 0.99 | 0.875 | 1.04 | 0.962 | 0.989 | 1.15 | 1.06 | 0.65 | 0.718 | 0.861 | 0.741 | 0.931 | 0.885 | 0.985 | 0.883 | 0.864 |
| NCI-H2170 | 0.97 | 0.944 | 1.04 | 1.04 | 0.995 | 0.922 | 1.05 | 0.936 | 1.05 | 0.416 | 0.4 | 0.413 | 0.408 | 0.765 | 0.627 | 0.715 | 0.573 | 0.665 |
| NCI-H2087 | 0.85 | 0.784 | 1.24 | 1.09 | 1.11 | 1.07 | 1.03 | 1.1 | 0.856 | 0.476 | 0.448 | 0.498 | 0.495 | 0.971 | 0.953 | 1.06 | 1.02 | 0.962 |
| COR-L 105 | 0.864 | 0.961 | 0.906 | 0.87 | 1.05 | 0.914 | 0.804 | 0.912 | 0.692 | 0.343 | 0.462 | 0.508 | 0.581 | 0.536 | 0.71 | 0.907 | 0.651 | 0.729 |
| NCI-H2126 | 0.981 | 1.01 | 1.01 | 1.05 | 1.08 | 0.972 | 1.03 | 0.991 | 1.05 | 0.508 | 0.597 | 0.555 | 0.522 | 0.813 | 0.823 | 0.882 | 0.872 | 0.828 |
| NCI-H322M | 0.952 | 1.03 | 0.916 | 0.965 | 0.978 | 0.92 | 0.982 | 1 | 1.03 | 0.775 | 0.837 | 0.849 | 0.852 | 1.1 | 1.08 | 1.19 | 1.37 | 1.23 |
| NCI-H2009 | 0.903 | 0.937 | 0.995 | 1.02 | 0.96 | 0.976 | 0.992 | 1.02 | 0.836 | 0.464 | 0.489 | 0.46 | 0.326 | 1.13 | 1.16 | 1.22 | 1.03 | 1.23 |
| UMC-11 | 0.723 | 0.945 | 0.983 | 0.966 | 0.988 | 0.889 | 0.998 | 1.04 | 0.959 | 0.3 | 0.355 | 0.363 | 0.328 | 0.271 | 0.278 | 0.364 | 0.346 | 0.307 |
| EPLC-272H | 0.878 | 1.08 | 1.03 | 1.04 | 0.761 | 0.883 | 0.989 | 1.01 | 1.15 | 0.347 | 0.317 | 0.286 | 0.304 | 1.06 | 0.964 | 1.15 | 1.18 | 1.05 |

Source: the supplement of paper PMC10307832
